The record followed here is article PMC9979715 (Blood Advances, 2022).

The assay addresses T1, MAP2K7 (Homo sapiens, UniProt O14733).
T1 sequence (O14733 2-419): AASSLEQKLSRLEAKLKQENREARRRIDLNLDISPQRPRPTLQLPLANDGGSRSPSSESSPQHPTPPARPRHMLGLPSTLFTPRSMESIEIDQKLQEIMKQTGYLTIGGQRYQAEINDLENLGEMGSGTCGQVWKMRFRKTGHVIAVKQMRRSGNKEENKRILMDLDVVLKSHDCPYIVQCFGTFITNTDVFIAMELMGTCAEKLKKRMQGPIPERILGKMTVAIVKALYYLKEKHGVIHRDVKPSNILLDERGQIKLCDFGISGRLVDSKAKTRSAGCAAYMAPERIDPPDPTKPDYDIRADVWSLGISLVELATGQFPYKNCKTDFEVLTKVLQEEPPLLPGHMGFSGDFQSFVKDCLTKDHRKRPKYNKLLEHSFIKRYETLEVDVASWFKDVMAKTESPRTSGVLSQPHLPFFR
Briefly: ADP-Glo kinase assay, purified human MAP2K7 with dead-JNK2 substrate and ATP. The class given is biochemical.

Molecules are shown by their SMILES.

In the case of `CC(=O)c1cnc2ccc(-c3cc(Cl)c(O)c(Cl)c3)nc2c1N[C@H]1CC[C@H](CN(C)C)CC1` [OTSSP167], the IC50 was 160 nM. This lies in the sub-micromolar range.
